Results on 2 molecules are retold here after BindingDB's records for patent US9611261 (Amgen, 2017).

The test has as its target Cathepsin D (Homo sapiens, UniProt P07339). In words: In Vitro Enzymatic FRET Assay.

Sequence of Cathepsin D (P07339 65-162 limits assumed): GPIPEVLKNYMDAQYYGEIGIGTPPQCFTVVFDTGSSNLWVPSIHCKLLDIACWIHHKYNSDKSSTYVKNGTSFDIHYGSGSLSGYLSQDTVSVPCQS
Sequence of Cathepsin D (P07339 169-412 limits assumed): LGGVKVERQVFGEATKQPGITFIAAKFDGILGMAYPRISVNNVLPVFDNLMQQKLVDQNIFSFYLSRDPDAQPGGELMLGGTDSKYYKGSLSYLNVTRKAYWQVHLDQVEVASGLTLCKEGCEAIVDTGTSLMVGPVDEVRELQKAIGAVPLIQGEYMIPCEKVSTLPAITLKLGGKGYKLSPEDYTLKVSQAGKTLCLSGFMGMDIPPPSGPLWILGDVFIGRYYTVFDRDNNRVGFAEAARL
Method: Recombinant Cat D was expressed in CHO cells. The assay buffer for CathepsinD is 0.05 M citrate pH 3.5, 10% DMSO final, 5 mM CHAPS. […] The assays are effectively started by the addition of different FRET substrates (20 nM for Cat D) and the combination is incubated for one hour. The FRET assay is terminated with by addition of Tris buffer, which raises the pH to neutrality, and the fluorescence is determined. The FRET substrate is a peptide with commercially available fluorophore and quencher, on opposite sides of the BACE cleavage site. […] Proteolytic cleavage of the FRET substrate releases quenching of fluorescence (Cat D excitation 500 nm and emission 580 nm).

`COc1cc(Cl)cnc1C(=O)Nc1ccc(F)c([C@@]2(CF)N=C(N)O[C@@H]3C[C@@H]32)c1` [US9611261, Example 297] displayed an IC50 of 835 µM.

In the case of `NC1=N[C@@](c2cc(NC(=O)c3cnc(CCC#CC4CC4)cn3)ccc2F)(C(F)F)[C@H]2C[C@H]2O1` [US9611261, Example 411], 360 µM corresponded to half-maximal inhibition (IC50).

By IC50 is commonly meant the midpoint of a concentration-inhibition curve.
